In ChEMBL document CHEMBL4004885, “Synthesis and biological activity of salinomycin-hydroxamic acid conjugates” (Bioorg Med Chem Lett, 2017):
Activity calls are given as the source filed them. The rule behind the calls is not given here.

How the values were obtained:
MDA-MB-231 [1] = test: Cytotoxicity against human MDA-MB-231 cells assessed as decrease in cell proliferation after 48 hrs by MTT assay; type: functional, cell-based; details: MDA-MB-231, 48 h
HT-29 [2] = test: Cytotoxicity against human HT-29 cells assessed as decrease in cell proliferation after 48 hrs by MTT assay; type: functional, cell-based; details: HT-29, 48 h
[3] = Chemical stability in RPMI1640 medium at 10 mg after 72 hrs by 1H NMR method; type: physicochemical
HGC-27 [4] = test: Cytotoxicity against human HGC27 cells assessed as decrease in cell proliferation after 48 hrs by MTT assay; type: functional, cell-based; details: HGC-27, 48 h
MDA-MB-231 [5] = test: Cytotoxicity against human MDA-MB-231 cells assessed as decrease in cell proliferation at 10 uM after 48 hrs in presence of salinomycin by MTT assay; type: functional, cell-based
MDA-MB-231 [6] = test: Cytotoxicity against human MDA-MB-231 cells assessed as decrease in cell proliferation after 48 hrs in presence of salinomycin by MTT assay; type: functional, cell-based; details: MDA-MB-231, 48 h
HGC-27 [7] = test: Potency index, ratio of salinomycin IC50 to test compound IC50 for human HGC27 cells; type: functional
HT-29 [8] = test: Potency index, ratio of salinomycin IC50 to test compound IC50 for human HT-29 cells; type: functional
MDA-MB-231 [9] = test: Potency index, ratio of salinomycin IC50 to test compound IC50 for human MDA-MB-231 cells; type: functional

| SMILES | IC50 (MDA-MB-231 [1]) [nM] | IC50 (HT-29 [2]) [nM] | Stability [3] | IC50 (HGC-27 [4]) [nM] | Activity (MDA-MB-231 [5]) | IC50 (MDA-MB-231 [6]) [nM] | Ratio IC50 (HGC-27 [7]) | Ratio IC50 (HT-29 [8]) | Ratio IC50 (MDA-MB-231 [9]) |
| --- | --- | --- | --- | --- | --- | --- | --- | --- | --- |
| CC(=O)O[C@H]1C(=O)[C@@]2(C)[C@H]([C@H](OC(=O)c3ccccc3)[C@]3(O)C[C@H](OC(=O)[C@H](O)[C@@H](NC(=O)c4ccccc4)c4ccccc4)C(C)=C1C3(C)C)[C@]1(OC(C)=O)CO[C@@H]1C[C@@H]2O [PACLITAXEL] | 80 | – | – | – | – | – | – | – | – |
| CC[C@@H](C(=O)[C@@H](C)[C@@H](O)[C@H](C)[C@@H]1O[C@@H]([C@@H](CC)C(=O)ONC(C)=O)CC[C@@H]1C)[C@H]1O[C@]2(C=C[C@@H](O)[C@]3(CC[C@@](C)([C@H]4CC[C@](O)(CC)[C@H](C)O4)O3)O2)[C@H](C)C[C@@H]1C | 3790 | 2320 | Stable | 2250 | – | – | – | – | – |
| CC[C@@H](C(=O)[C@@H](C)[C@@H](O)[C@H](C)[C@@H]1O[C@@H]([C@@H](CC)C(=O)ONC(=O)Cc2ccccc2Br)CC[C@@H]1C)[C@H]1O[C@]2(C=C[C@@H](O)[C@]3(CC[C@@](C)([C@H]4CC[C@](O)(CC)[C@H](C)O4)O3)O2)[C@H](C)C[C@@H]1C | 930 | 800 | Stable | 760 | – | – | – | – | – |
| CC[C@@H](C(=O)[C@@H](C)[C@@H](O)[C@H](C)[C@@H]1O[C@@H]([C@@H](CC)C(=O)O)CC[C@@H]1C)[C@H]1O[C@]2(C=C[C@@H](O)[C@]3(CC[C@@](C)([C@H]4CC[C@](O)(CC)[C@H](C)O4)O3)O2)[C@H](C)C[C@@H]1C [SALINOMYCIN] | 6530 to 6910 | 1430 | Stable | 2570 | – | – | – | – | – |
| O=C(/C=C/c1ccccc1)NO | – | – | – | – | inactive | 8980 | – | – | – |
| C/C=C/C=C/C(=O)NO | – | – | – | – | inactive | 7890 | – | – | – |
| CC[C@@H](C(=O)[C@@H](C)[C@@H](O)[C@H](C)[C@@H]1O[C@@H]([C@@H](CC)C(=O)ONC(=O)Cc2ccccc2)CC[C@@H]1C)[C@H]1O[C@]2(C=C[C@@H](O)[C@]3(CC[C@@](C)([C@H]4CC[C@](O)(CC)[C@H](C)O4)O3)O2)[C@H](C)C[C@@H]1C | 1010 | 900 | Stable | 1290 | – | – | 1.5 - 7 | 1.5 - 7 | 1.5 - 7 |
| CCCCCCCC(=O)NOC(=O)[C@H](CC)[C@H]1CC[C@H](C)[C@H]([C@@H](C)[C@H](O)[C@H](C)C(=O)[C@H](CC)[C@H]2O[C@]3(C=C[C@@H](O)[C@]4(CC[C@@](C)([C@H]5CC[C@](O)(CC)[C@H](C)O5)O4)O3)[C@H](C)C[C@@H]2C)O1 | 2690 | 960 | Stable | 1350 | – | – | 1.5 - 2.5 | 1.5 - 2.5 | 1.5 - 2.5 |
| O=C(NO)c1ccccc1 [BENZOHYDROXAMATE] | – | – | – | – | inactive | 9850 | – | – | – |
| O=C(Cc1ccccc1Br)NO | – | – | – | – | inactive | > 10000 | – | – | – |
| CC[C@@H](C(=O)[C@@H](C)[C@@H](O)[C@H](C)[C@@H]1O[C@@H]([C@@H](CC)C(=O)ONC(=O)/C=C/c2ccccc2)CC[C@@H]1C)[C@H]1O[C@]2(C=C[C@@H](O)[C@]3(CC[C@@](C)([C@H]4CC[C@](O)(CC)[C@H](C)O4)O3)O2)[C@H](C)C[C@@H]1C | 9640 | 7230 | Stable | 7270 | – | – | – | – | – |
| O=C(NO)c1ccc(Br)cc1 | – | – | – | – | inactive | > 10000 | – | – | – |
| CC[C@@H](C(=O)[C@@H](C)[C@@H](O)[C@H](C)[C@@H]1O[C@@H]([C@@H](CC)C(=O)ONC(=O)c2ccc(Br)cc2)CC[C@@H]1C)[C@H]1O[C@]2(C=C[C@@H](O)[C@]3(CC[C@@](C)([C@H]4CC[C@](O)(CC)[C@H](C)O4)O3)O2)[C@H](C)C[C@@H]1C | 940 | 700 | Stable | 510 | – | – | 7 | – | 7 |
| CC[C@@H](C(=O)[C@@H](C)[C@@H](O)[C@H](C)[C@@H]1O[C@@H]([C@@H](CC)C(=O)ONC(=O)CCc2ccccc2)CC[C@@H]1C)[C@H]1O[C@]2(C=C[C@@H](O)[C@]3(CC[C@@](C)([C@H]4CC[C@](O)(CC)[C@H](C)O4)O3)O2)[C@H](C)C[C@@H]1C | 1890 | 800 | Stable | 1050 | – | – | 1.5 - 7 | 1.5 - 7 | 1.5 - 7 |
| C/C=C/C=C/C(=O)NOC(=O)[C@H](CC)[C@H]1CC[C@H](C)[C@H]([C@@H](C)[C@H](O)[C@H](C)C(=O)[C@H](CC)[C@H]2O[C@]3(C=C[C@@H](O)[C@]4(CC[C@@](C)([C@H]5CC[C@](O)(CC)[C@H](C)O5)O4)O3)[C@H](C)C[C@@H]2C)O1 | 3820 | 2310 | Stable | 2630 | – | – | – | – | – |
| O=C(Cc1ccccc1)NO [PHENYLACETOHYDROXAMIC ACID] | – | – | – | – | inactive | 9720 | – | – | – |
| CC[C@@H](C(=O)[C@@H](C)[C@@H](O)[C@H](C)[C@@H]1O[C@@H]([C@@H](CC)C(=O)ONC(=O)c2ccccc2)CC[C@@H]1C)[C@H]1O[C@]2(C=C[C@@H](O)[C@]3(CC[C@@](C)([C@H]4CC[C@](O)(CC)[C@H](C)O4)O3)O2)[C@H](C)C[C@@H]1C | 2260 | 850 | Stable | 920 | – | – | 1.5 - 7 | 1.5 - 7 | 1.5 - 7 |
| CC[C@@H](C(=O)[C@@H](C)[C@@H](O)[C@H](C)[C@@H]1O[C@@H]([C@@H](CC)C(=O)ONC(=O)c2ccccc2O)CC[C@@H]1C)[C@H]1O[C@]2(C=C[C@@H](O)[C@]3(CC[C@@](C)([C@H]4CC[C@](O)(CC)[C@H](C)O4)O3)O2)[C@H](C)C[C@@H]1C | 2780 | 880 | Stable | 920 | – | – | – | – | – |
